According to US20100021599A1, “PRESERVATIVE” (LANXESS DEUTSCHLAND GMBH, priority 2006, published 2010):
Read-outs that look alike come from different tables or passages of the source.

Test system: Paecilomyces variotii
Conditions: single substance alone, fruit-component drink inoculated with conidia, incubated two weeks at 27° C.
Procedure: A drink which contains fruit components was admixed with various concentrations of citric acid and subsequently inoculated with conidia of the fungus Paecilomyces variotii. Subsequently, the inoculated drinks samples were treated with various DMDC concentrations and incubated for two weeks at 27° C.

Compound: O=C(O)CC(O)(CC(=O)O)C(=O)O [Citric acid, citric acid]
- MHC: >30 000 ppm
- MHC (listed as citric acid): > 30 000 ppm

Compound: COC(=O)OC(=O)OC [DMDC, dimethyl dicarbonate]
- MHC: >250 ppm
